Reference: US9714244B2, “Substituted pyrido[4,3-d]pyrimidines as Wee-1 inhibitors” (ALMAC DISCOVERY LIMITED, priority 2013, dated 2017)

Tests used:
Wee-1 kinase = Wee-1 kinase (Homo sapiens (Human), UniProt P30291); test: Measurement of Wee-1 kinase activity (ADP-Glo); type: biochemical; conditions: read-out: Wee-1 IC50 activity
Description: Method 1: Measurement of Wee-1 kinase activity
In the measurement of Wee-1 activity, a commercial peptide Poly(Lys Tyr(4:1)) hydrobromide was purchased from Sigma Aldrich and used as the substrate. Activated Wee-1 kinase was purchased from Invitrogen (PV3817) and an ADP-Glo luminescent kit was purchased from Promega.
All reactions took place in […] volumes in reaction buffer containing 40 mM Tris-HCl and 20 mM magnesium chloride, supplemented with 0.1 mg/mL bovine serum albumin and 2 mM DTT. Compounds were serially diluted in buffer and 5 μL of each concentration pipetted into a white 384 well plate (Sigma Aldrich M6186). A 5 μL aliquot of the Wee-1 enzyme was added to each well and the plate centrifuged for 1 min to ensure mixing of the enzyme and inhibitor.
The plate was incubated at room temperature for 30 minutes before the addition of 2.0 μg/mL of substrate and 30 μM ATP in a 5 μL aliquot. The plate was centrifuged for one minute and incubated for 1 h at RT.
15 μL of ADP-Glo stop reagent was added to each well to quench the reaction and deplete unconverted ATP. The plate was incubated for a further 40 min in the dark at RT.
30 μL of ADP-Glo kinase detection reagent was added to each well, converting ADP to ATP, catalysing the generation of luciferin by luciferase. The plate was shaken for 1 min, and incubated in the dark for an additional hour.
Luminescence from each well was detected using the Biotek Synergy4 HD plate reader and the percentage inhibition of kinase activity calculated for each inhibitor tested. Positive (kinase only) and negative (no kinase) controls were added to each plate to ensure specific interaction of kinase and inhibitor. The IC50 concentration for each inhibitor was calculated by plotting the percentage kinase inhibition against concentration of inhibitor and the curve generated by non-linear regression fitting.

[1] = CLint estimates using human liver microsomes; type: in vitro ADME; conditions: pH 7.4, read-out: HLM activity (HLM CLint)
Description: Method for the Determination of CLint Estimates Using Human Liver Microsomes
Test compounds (final concentration=1 μM; final DMSO concentration=0.1%) were incubated in 0.1M phosphate buffer pH 7.4 with human liver microsomes (0.5 mg of protein/mL) at 37° C. Reactions were started by addition of NADPH in 0.1M phosphate buffer pH 7.4 (final concentration 1 mM). 40 μL aliquots were removed at 2, 5, 10, 15, 20, 30, 40 and 50 min. Reactions were quenched in 80 μL of ice-cold methanol. Samples were subsequently frozen overnight then centrifuged at 3500 rpm for 20 min at 4° C. The supernatants were removed and transferred into analytical plates and analysed by LC/MS/MS.
All samples were analysed on a Waters Acquity I-Class coupled to a Waters Xevo TQD mass spectrometer. A Waters BEH C18 2.1×50 mm 1.7 μm column was used and mobile phases were water and methanol containing 0.1% formic acid as modifier. Analysis was by multiple reaction monitoring and conditions were optimised for each test compound.
From a plot of ln peak area against time, the gradient of the line is determined. Subsequently, half-life and intrinsic clearance are calculated using the following equations.

[2] = test system: phospho-cdc2 (Tyr15) in HT-29 cells; test: Effect on phosphorylation of cdc2 at Tyr15 in HT-29 cells (PathScan ELISA); type: cell-based; conditions: Homo sapiens, HT-29, 8 h; HT29 cells, eight hours incubation; read-out: HT29 pCDC2 activity
Description: Method 2: Determining the effect of compounds on the phosphorylation of cdc2 at Tyr15
The colorectal cancer cell lines HT-29 and HCT-116 were purchased from the ATCC and routinely maintained in McCoy's Medium (Invitrogen) supplemented with 10% Foetal Calf Serum.
The cells were trypsinised from their growing vessel and counted, 100 μL of cell suspension containing 6000 cells was pipetted into black 96 well Co-star plates and incubated overnight to allow adherence to the surface at a temperature of 37° C. and an atmosphere of 5% CO2. Test compounds were formulated in DMSO and diluted in foetal calf serum supplemented medium. Incubating medium was removed by aspiration and diluted drug supplemented medium added to each well.
The plate was returned to the incubator for an additional eight hours at 37° C. and an atmosphere of 5% CO2. Post incubation, the drug supplemented medium was aspirated from each well and the cells were washed once in ice-cold phosphate buffered saline (PBS). 100 μL of cell lysis buffer (Cell Signalling Technologies #9803) containing 20 mM Tris, 150 mM NaCl, 1 mM EDTA, 1 mM EGTA, 1% Triton-X100, 2.5 mM sodium pyrophosphate, 1 mM glycerophosphate, 1 mM Na3VO4 and 1 μg/mL leupeptin was added to each well of the 96 well plate and incubated at 4° C. for 30 min. The samples on the plate were snap frozen at −80° C. until required.
Immediately before the continuation of the assay, the sample plate was thawed and centrifuged at 4° C. for 10 min and the supernatant transferred to secondary tubes or 96 well plate.
Cell supernatant was mixed in a ratio of 1:1 with sample dilutent buffer and vortexed for one minute. 100 μL of diluted sample was pipetted into pre-coated plates containing a rabbit polyclonal antibody for phospho-cdc2 (Tyr15) (Cell Signalling Technologies PathScan kit #7176). The plate was sealed and incubated overnight at 4° C.
The plate seal was removed and the well contents aspirated, followed by 3×5 min washes with 200 μL of diluted wash buffer. Between each wash the plate was tapped firmly onto blotting paper to ensure the removal of all kit solution. 100 μL of kit detection antibody was added to each well and the plate re-sealed and incubated at 37° C. for 1 h. Post incubation the plate was washed and processed in a similar manner to that previously described.
100 μL of horseradish peroxidise-linked secondary antibody was added to each test well, the plate sealed and incubated for thirty minutes at 37° C. Post incubation, the plate was washed as previously stated, followed by the addition of 100 μL of 3,3′,5,5′ tetramethylbenzidine (TMB reagent). The plate was sealed and incubated at RT for 30 min.
100 μL of stop solution was added to each well and the underside of the plate wiped with a lint-free tissue, prior to spectrophotometric determination. Absorbance from each well was read at 450 nm within 30 min of the addition of the stop solution.
The percentage of phospho-cdc2 was calculated compared to DMSO control and plotted versus the concentration of inhibitor using GraphPad Prism. Data was fitted using non-linear regression analysis and IC50 values generated.

Sequence of Wee-1 kinase (P30291 whole entry): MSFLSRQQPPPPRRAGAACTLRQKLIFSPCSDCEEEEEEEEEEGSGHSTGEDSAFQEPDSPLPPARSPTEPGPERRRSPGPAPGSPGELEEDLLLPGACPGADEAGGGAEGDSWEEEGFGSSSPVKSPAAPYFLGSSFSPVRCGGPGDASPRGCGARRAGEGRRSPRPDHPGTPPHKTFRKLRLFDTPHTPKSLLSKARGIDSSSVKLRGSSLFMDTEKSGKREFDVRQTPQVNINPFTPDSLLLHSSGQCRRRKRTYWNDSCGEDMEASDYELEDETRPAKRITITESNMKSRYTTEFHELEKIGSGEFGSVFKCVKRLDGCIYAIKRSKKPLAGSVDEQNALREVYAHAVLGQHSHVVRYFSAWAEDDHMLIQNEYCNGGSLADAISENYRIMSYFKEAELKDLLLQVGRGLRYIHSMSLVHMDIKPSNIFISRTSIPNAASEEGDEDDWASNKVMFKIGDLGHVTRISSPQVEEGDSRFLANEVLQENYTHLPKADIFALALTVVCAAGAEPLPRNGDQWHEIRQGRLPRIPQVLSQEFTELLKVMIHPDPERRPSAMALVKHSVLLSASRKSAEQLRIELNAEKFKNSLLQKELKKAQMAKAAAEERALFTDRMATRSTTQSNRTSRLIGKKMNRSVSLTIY

IC50 (Wee-1 kinase) [nM]	microsomal CLint at 1 μM [1] [µL/min/mg]	IC50 [2] [nM]	Structure (SMILES)
> 200	≤ 20	–	O=c1c2cnc(Nc3ccc(N4CCNCC4)cc3)nc2ccn1-c1cccnc1Cl [Example 3, 6-(2-Chloropyridin-3-yl)-2-((4-(piperazin-1-yl)phenyl)amino)pyrido[4,3-d]pyrimidin-5(6H)-one]
–	> 20	100 to 1000	CCN(CC)CCOc1ccc(Nc2ncc3c(=O)n(-c4c(Cl)cccc4Cl)ccc3n2)cc1 [Example 4, 6-(2,6-Dichlorophenyl)-2-((4-(2-(diethylamino)ethoxy)phenyl)amino)pyrido[4,3-d]pyrimidin-5(6H)-one]
–	> 20	100 to 1000	O=c1c2cnc(Nc3ccc(N4CCS(=O)(=O)CC4)cc3)nc2ccn1-c1c(Cl)cccc1Cl [Example 6, 6-(2,6-Dichlorophenyl)-2-((4-(1,1-dioxidothiomorpholino)phenyl)amino)pyrido[4,3-d]pyrimidin-5(6H)-one]
< 10	≤ 20	100 to 1000	O=c1c2cnc(Nc3ccc(N4CCNCC4)cc3)nc2c(Br)cn1-c1c(Cl)cccc1Cl [Example 9, 8-Bromo-6-(2,6-dichlorophenyl)-2-((4-(piperazin-1-yl)phenyl)amino)pyrido[4,3-d]pyrimidin-5(6H)-one]
< 10	≤ 20	≤ 100	Cc1cc(Nc2ncc3c(=O)n(-c4c(Cl)cccc4Cl)cc(C#CCO)c3n2)ccc1N1CCNCC1 [Example 14, 6-(2,6-Dichlorophenyl)-8-(3-hydroxyprop-1-yn-1-yl)-2-((3-methyl-4-(piperazin-1-yl)phenyl)amino)pyrido[4,3-d]pyrimidin-5(6H)-one]
–	> 20	100 to 1000	CN1CCN(c2ccc(Nc3ncc4c(=O)n(-c5c(Cl)cccc5Cl)ccc4n3)cc2)CC1 [Example 15, 6-(2,6-Dichlorophenyl)-2-((4-(4-methylpiperazin-1-yl)phenyl)amino)pyrido[4,3-d]pyrimidin-5(6H)-one]
–	> 20	≥ 1000	NCc1cccc(Nc2ncc3c(=O)n(-c4c(Cl)cccc4Cl)ccc3n2)c1 [Example 25, 2-((3-(Aminomethyl)phenyl)amino)-6-(2,6-dichlorophenyl)pyrido[4,3-d]pyrimidin-5(6H)-one]
–	> 20	≥ 1000	CN1CCN(c2cccc(Nc3ncc4c(=O)n(-c5c(Cl)cccc5Cl)ccc4n3)c2)CC1 [Example 26, 6-(2,6-Dichlorophenyl)-2-((3-(4-methylpiperazin-1-yl)phenyl)amino)pyrido[4,3-d]pyrimidin-5(6H)-one]
> 200	–	–	CC(=O)Nc1cn(-c2c(Cl)cccc2Cl)c(=O)c2cnc(Nc3ccc(N4CCNCC4)cc3)nc12 [Example 28, N-(6-(2,6-Dichlorophenyl)-5-oxo-2-((4-(piperazin-1-yl)phenyl)amino)-5,6-dihydropyrido[4,3-d]pyrimidin-8-yl)acetamide]
–	> 20	100 to 1000	CN1CCN(c2ccc(Nc3ncc4c(=O)n(-c5c(Cl)cccc5Cl)ccc4n3)cn2)CC1 [Example 31, 6-(2,6-Dichlorophenyl)-2-((6-(4-methylpiperazin-1-yl)pyridin-3-yl)amino)pyrido[4,3-d]pyrimidin-5(6H)-one]
10 to 200	–	100 to 1000	CN1CCN(C(=O)c2ccc(Nc3ncc4c(=O)n(-c5c(Cl)cccc5Cl)ccc4n3)cc2)CC1 [Example 32, 6-(2,6-Dichlorophenyl)-2-((4-(4-methylpiperazine-1-carbonyl)phenyl)amino)pyrido[4,3-d]pyrimidin-5(6H)-one]

Structure (SMILES)	IC50 (Wee-1 kinase) [nM]	microsomal CLint at 1 μM [1] [µL/min/mg]	IC50 [2] [nM]
CC(=O)N1CCN(c2ccc(Nc3ncc4c(=O)n(-c5c(Cl)cccc5Cl)ccc4n3)cc2)CC1 [Example 5, 2-((4-(4-Acetylpiperazin-1-yl)phenyl)amino)-6-(2,6-dichlorophenyl)pyrido[4,3-d]pyrimidin-5(6H)-one]	10 to 200	≤ 20	100 to 1000
